Entries after “also recorded” stand apart in the source; their conditions may differ.
How the values were obtained:
[1] = tested on: HMG-box containing protein 1; assay: Differential gene expression in a cell following contact with reference compounds: HBP1; type: cell-based; details: accession U09551; cell expressing estrogen receptor or estrogen related receptor, after contact with compound
Excerpt: (§1) The expression of any gene known by one of skill in the art to be associated with hot flash symptoms, without limitation, can be assessed in the methods of the invention. The present invention provides numerous such genes as described in detail, below. Further, additional genes that are associated with hot flash symptoms can readily be identified by one of skill in the art according to the disclosure of the present invention. For example, a cell that expresses the estrogen receptor or estrogen related receptor can be contacted with a reference compound known to affect hot flash symptoms. The overall expression of genes in the cell following contact with the reference compound can be compared to the overall expression of genes in a similar cell that has not been contacted with the reference compound.
(§2) The expression of such genes to identify genes that are differentially expressed following contact with a compound with a known effect on hot flash symptoms can be monitored by any convenient method known by one of skill in the art. Most advantageously, the expression of many genes, e.g., thousands of genes, is monitored at once using a high throughput method for assessing expression of genes in the presence and absence of compounds known to affect hot flash symptoms. […]

Protein Kinase C type I = assay: Differential gene expression in a cell following contact with reference compounds: Protein Kinase C type I; type: cell-based; details: accession M13707; cell expressing estrogen receptor or estrogen related receptor, after contact with compound
Excerpt: as §1, §2

[2] = tested on: FE65 adaptor protein interacting with beta-amyloid precursor protein intracellular domain; assay: Differential gene expression in a cell following contact with reference compounds: FE65; type: cell-based; details: accession X60469; cell expressing estrogen receptor or estrogen related receptor, after contact with compound
Excerpt: as §1, §2

Annexin 1 = assay: Differential gene expression in a cell following contact with reference compounds: Annexin 1; type: cell-based; details: accession AI171962; cell expressing estrogen receptor or estrogen related receptor, after contact with compound
Excerpt: as §1, §2

D-binding protein = assay: Differential gene expression in a cell following contact with reference compounds: D-binding protein; type: cell-based; details: accession J03179; cell expressing estrogen receptor or estrogen related receptor, after contact with compound
Excerpt: as §1, §2

N27 = assay: Differential gene expression in a cell following contact with reference compounds: N27; type: cell-based; details: accession AI014169; cell expressing estrogen receptor or estrogen related receptor, after contact with compound
Excerpt: as §1, §2

hot flash symptoms = details: cited from earlier work
[3] = tested on: Protein Tyrosine Phosphatase BAD2; assay: Differential gene expression in a cell following contact with reference compounds: BAD2; type: cell-based; details: accession U02553; cell expressing estrogen receptor or estrogen related receptor, after contact with compound
Excerpt: as §1, §2

Type II Hexokinase = assay: Differential gene expression in a cell following contact with reference compounds: Type II Hexokinase; type: cell-based; details: accession D26393; cell expressing estrogen receptor or estrogen related receptor, after contact with compound
Excerpt: as §1, §2

Parvalbumin = assay: Differential gene expression in a cell following contact with reference compounds: Parvalbumin; type: cell-based; details: accession AF022935; cell expressing estrogen receptor or estrogen related receptor, after contact with compound
Excerpt: as §1, §2

EST208064 = assay: Differential gene expression in a cell following contact with reference compounds: EST208064; type: cell-based; details: accession AI013389; cell expressing estrogen receptor or estrogen related receptor, after contact with compound
Excerpt: as §1, §2

Activin Beta E = assay: Differential gene expression in a cell following contact with reference compounds: Activin Beta E; type: cell-based; details: accession AF089825; cell expressing estrogen receptor or estrogen related receptor, after contact with compound
Excerpt: as §1, §2

Prolactin = assay: Differential gene expression in a cell following contact with reference compounds: Prolactin; type: cell-based; details: accession AI175539; cell expressing estrogen receptor or estrogen related receptor, after contact with compound
Excerpt: as §1, §2

Calpain = assay: Differential gene expression in a cell following contact with reference compounds: Calpain; type: cell-based; details: accession D14478; cell expressing estrogen receptor or estrogen related receptor, after contact with compound
Excerpt: as §1, §2

[4] = tested on: Ribonucleoside Reductase Nuclear Receptor; assay: Differential gene expression in a cell following contact with reference compounds: RNR-1; type: cell-based; details: accession L08595; cell expressing estrogen receptor or estrogen related receptor, after contact with compound
Excerpt: as §1, §2

2-alpha-1 globin = assay: Differential gene expression in a cell following contact with reference compounds: 2-alpha-1 globin; type: cell-based; details: accession X56325; cell expressing estrogen receptor or estrogen related receptor, after contact with compound
Excerpt: as §1, §2

EST196325 = assay: Differential gene expression in a cell following contact with reference compounds: EST196325; type: cell-based; details: accession AA892522; cell expressing estrogen receptor or estrogen related receptor, after contact with compound
Excerpt: as §1, §2

ARL gene 4 = assay: Differential gene expression in a cell following contact with reference compounds: ARL gene 4; type: cell-based; details: accession X77235; cell expressing estrogen receptor or estrogen related receptor, after contact with compound
Excerpt: as §1, §2

[5] = tested on: Interleukin-1 β-converting enzyme-related protease CPP32; assay: Differential gene expression in a cell following contact with reference compounds: CPP32; type: cell-based; details: accession U84410; cell expressing estrogen receptor or estrogen related receptor, after contact with compound
Excerpt: as §1, §2

Interleukin-18 = assay: Differential gene expression in a cell following contact with reference compounds: Interleukin-18; type: cell-based; details: accession AJ222813; cell expressing estrogen receptor or estrogen related receptor, after contact with compound
Excerpt: as §1, §2

[6] = tested on: Argininosuccinate Synthetase; assay: Differential gene expression in a cell following contact with reference compounds: Argininosuccinate Synthetase; type: cell-based; details: accession X12459; cell expressing estrogen receptor or estrogen related receptor, after contact with compound
Excerpt: as §1, §2

[7] = tested on: Multi Drug Resistance Gene; assay: Differential gene expression in a cell following contact with reference compounds: Multi Drug Resistance Gene; type: cell-based; details: accession M81855; cell expressing estrogen receptor or estrogen related receptor, after contact with compound
Excerpt: as §1, §2

O=C(c1ccc(OCCN2CCCCC2)cc1)c1c(-c2ccc(O)cc2)sc2cc(O)ccc12 [Raloxifene, raloxifene]
Effect on Expression of HMG-box containing protein 1 (HBP1) [1]: Upregulated
Effect on Expression of Protein Kinase C type I (PKC type I) (Protein Kinase C type I): Upregulated
Effect on Expression of FE65 adaptor protein interacting with beta-amyloid precursor protein intracellular domain (FE65) [2]: Upregulated
Effect on Expression of Annexin 1 (EST 21795) (Annexin 1): Upregulated
Effect on Expression of D-binding protein (D-binding protein): Upregulated
Effect on Expression of N27 (EST 207724) (N27): Upregulated
subjects experiencing hot flash symptoms of sufficient severity to discontinue therapy (hot flash symptoms; administered in the treatment of osteoporosis): approximately 11%

4-hydroxy tamoxifen
Effect on Expression of HMG-box containing protein 1 (HBP1) [1]: Upregulated
Effect on Expression of Protein Tyrosine Phosphatase BAD2 [3]: downregulation
Effect on Expression of Protein Kinase C type I (PKC type I) (Protein Kinase C type I): Upregulated
Effect on Expression of Annexin 1 (EST 21795) (Annexin 1): Upregulated
Effect on Expression of D-binding protein (D-binding protein): Upregulated
Effect on Expression of Type II Hexokinase (HKII) (Type II Hexokinase): downregulation
Effect on Expression of N27 (EST 207724) (N27): Upregulated
known effect on the incidence of hot flash symptoms (hot flash symptoms; when administered to a subject): increasing effect on hot flash symptoms; also recorded: increase the incidence of hot flash symptoms

C#C[C@]1(O)CC[C@H]2[C@@H]3[C@H](C)CC4=C(CCC(=O)C4)[C@H]3CC[C@@]21C [Tibolone, tibolone]
Effect on Expression of Parvalbumin (Parvalbumin): Upregulated
Effect on Expression of EST208064 (EST208064): Upregulated
Effect on Expression of Activin Beta E (Activin Beta E): Upregulated
Effect on Expression of Protein Tyrosine Phosphatase BAD2 [3]: Upregulated
Effect on Expression of Prolactin (Prolactin): Upregulated
Effect on Expression of Calpain (Calpain): Upregulated
Effect on Expression of Ribonucleoside Reductase Nuclear Receptor (RNR-1) [4]: Upregulated
Effect on Expression of 2-alpha-1 globin (2-alpha-1 globin): Upregulated
Effect on Expression of EST196325 (EST196325): Upregulated
Effect on Expression of ARL gene 4 (ARL gene 4): Upregulated
Effect on Expression of Interleukin-1 β-converting enzyme-related protease CPP32 [5]: Upregulated
Effect on Expression of Interleukin-18 (IL-18) (Interleukin-18): Upregulated
Effect on Expression of Type II Hexokinase (HKII) (Type II Hexokinase): Upregulated
Effect on Expression of Argininosuccinate Synthetase [6]: Upregulated
Effect on Expression of Multi Drug Resistance Gene (MDR) [7]: Upregulated
